Measurements reported in patent US20230009608A1, “GRK2 INHIBITORS AND USES THEREOF” (Cygnal Therapeutics, Inc., priority 2020, published 2023).

What was measured:
[1] = tested on: PAXF1657 control empty vector cell line; assay: 7-day proliferation assay, PAXF1657 control empty vector cell line (Example 9); assay type: cell-based; settings: 168 h; 7-day compound treatment, CellTiter-Glo
Summary of the method: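 500 cells/well, RPMI1640 + 10% H.I. FBS, adhered overnight at 37° C. Compound 10-pt dilution, 30 μM-0.0002 μM final, 0.3% DMSO. 3 d, media + compound replaced, further 4 d. Viability by CellTiter-Glo; untreated plates read at time of dosing.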

GRK2 [2] = target: T1, GRK2 (Homo sapiens, UniProt P25098); assay: GRK2 Inhibition Assay (TR-FRET, Example 7); assay type: biochemical; settings: 1 nM GRK2, 7 μM ATP, TR-FRET; read-out: GRK2 IC50 (nM) (Example 7)
T1 construct: purchased SignalChem A14-10G
T1 sequence (P25098 1-689): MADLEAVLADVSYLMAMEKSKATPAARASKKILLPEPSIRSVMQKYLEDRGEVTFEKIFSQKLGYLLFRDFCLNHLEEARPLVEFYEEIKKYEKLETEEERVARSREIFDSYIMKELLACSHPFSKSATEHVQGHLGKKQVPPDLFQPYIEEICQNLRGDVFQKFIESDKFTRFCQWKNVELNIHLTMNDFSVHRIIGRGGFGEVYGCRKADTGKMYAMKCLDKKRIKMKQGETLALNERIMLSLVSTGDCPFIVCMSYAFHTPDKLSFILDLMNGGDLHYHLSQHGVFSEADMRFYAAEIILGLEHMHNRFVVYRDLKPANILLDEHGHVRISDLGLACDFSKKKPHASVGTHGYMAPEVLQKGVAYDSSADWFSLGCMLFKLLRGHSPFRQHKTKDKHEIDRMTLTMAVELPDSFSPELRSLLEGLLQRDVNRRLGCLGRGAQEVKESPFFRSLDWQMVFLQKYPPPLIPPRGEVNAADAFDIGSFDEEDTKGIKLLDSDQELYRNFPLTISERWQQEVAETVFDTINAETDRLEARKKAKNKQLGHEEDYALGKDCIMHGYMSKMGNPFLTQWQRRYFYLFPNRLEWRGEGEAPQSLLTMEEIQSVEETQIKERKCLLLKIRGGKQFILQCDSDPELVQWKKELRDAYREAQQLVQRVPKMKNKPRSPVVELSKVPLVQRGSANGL
Summary of the method: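 GRK2 at 1 nM preincubated 30 min with compound, then reacted 90 min at room temperature with 7 μM ATP and 50 nM ULight-TopoIIα in HEPES/MgCl2/DTT buffer. Phosphorylation detected by TR-FRET after Eu anti-TopoIIα and EDTA addition, 60 min.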

[3] = tested on: PAXF1657 cell line stably overexpressing GRK2; assay: 7-day proliferation assay, PAXF1657 stably overexpressing GRK2 (Example 9); assay type: cell-based; settings: for GI50: 168 h, 7-day compound treatment, CellTiter-Glo; for Ratio GRK2 overexpressing cells/Empty vector cells: GI50 in GRK2 overexpressing PAXF1657 over GI50 in empty vector PAXF1657
Description: In order to identify compounds specific for GRK2, we generated two isogenic cell line pairs of the pancreatic cancer cell line PAXF1657, a pair of cells stably overexpressing GRK2 cDNA or the control empty vector and a cell line pair of PAXF1657 GRK2 knockout clonal cells versus non-targeting control clonal cells.
Proliferation Assay: Cellular anti-proliferative activity of compounds was assessed by using the pancreatic cancer cell line, PAXF1657, stably overexpressing GRK2 cDNA or the control empty vector, as well as the parental urinary bladder cancer cell line, 5637. In addition, we also took advantage of GRK2 knockout cell lines that were generated via CRISPR. Cell lines were seeded into tissue culture treated, white-walled, 96-well plates at a density of 500 cells/well in RPMI1640 media supplemented with 10% H.I. FBS and penicillin/streptomycin. Plates were incubated overnight at 37° C., 5% CO2 to allow cells to adhere to the wells. GRK2 inhibitors were added to the cells using a 10-point dilution series with a final concentration ranging from 30 μM-0.0002 μM in 0.3% DMSO. At the time of compound addition, a set of plates, that were not treated with compounds, were collected and cell viability was measured using CellTiter-Glo (Promega). CellTiter-Glo reagent was added to the designed plates and luminescence was measuring using a Biotek Synergy plate reader. The compound treated cells were incubated for 3 days at 37° C., 5% CO2. The media was then aspirated from each well and replaced with fresh media containing GRK2 inhibitors. The compound treated cells were then incubated for an additional 4 days at 37° C., 5% CO2. Cell viability was assessed and at end of the 7-day compound treatment by CellTiterGlo.

GRK2 [4] = target: T1, GRK2; assay: ADPGlo GRK2 Inhibition Assay (Example 8); assay type: biochemical; settings: 7.5 nM GRK2, 10 μM ATP, ADP-Glo; read-out: GRK2 IC50 (nM) (Example 8)
Summary of the method: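 GRK2 (15 nM 2× enzyme solution) was preincubated 15 min with compound, then reacted 180 min at room temperature with 2× mix of 20 μM ATP plus GRKtide in HEPES pH 7.5, MgCl2, Tween-20, DTT. ADP was detected by ADP-Glo luminescence. Percent inhibition was normalised to enzyme and no-enzyme controls, with dose-response curves from threefold dilutions starting at 100 μM.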

Structure (SMILES) | IC50 (GRK2 [2]) [nM] | IC50 (GRK2 [4]) [nM] | GI50 [1] [µM] | GI50 [3] [µM] | Ratio GRK2 overexpressing cells/Empty vector cells [3]
Cn1c(CNc2cccc(C(=O)NCc3cccnc3C(F)(F)F)c2)nnc1-c1ccncn1 [compound 4] | 28 | 36 | 0.79 | 4.59 | 5.79
COc1cccc(OC)c1CNC(=O)c1cccc(NCc2nnc(-c3ccncn3)n2C)c1 [compound 6] | 19 | 44 | 2.08 | 12.5 | 6.01
COc1ccc(CNC(=O)c2cccc(NCc3nnc(-c4ccncn4)n3C)c2)c(F)c1 [compound 5] | 5.4 | 19 | 1.51 | 10.3 | 6.79
Cn1c(CNc2cccc(C(=O)NCc3cccc4c3OCC4)c2)nnc1-c1ccncn1 [compound 1, N-((2,3-dihydrobenzofuran-7-yl)methyl)-3-(((4-methyl-5-(pyrimidin-4-yl)-4H-1,2,4-triazol-3-yl)methyl)amino)benzamide] | 4.7 | 27 | 1.97 | 24.3 | 12.34
Cn1c(CNc2cccc(C(=O)N[C@H]3CCOc4ccccc43)c2)nnc1-c1ccncn1 [compound 3] | 10 | 18 | 1.16 | 8.61 | 7.42
Cn1c(CNc2cccc(C(=O)NCc3cccc(F)c3)c2)nnc1-c1ccncn1 [compound 2] | 56 | 49 | 1.79 | 20.5 | 11.46

More lines, main results first:

IC50 (GRK2 [2]) [nM] | IC50 (GRK2 [4]) [nM] | Structure (SMILES) | GI50 [1] [µM] | GI50 [3] [µM] | Ratio GRK2 overexpressing cells/Empty vector cells [3]
170 | 140 | Cn1c(CNc2cccc(C(=O)NC3(c4ccccc4)CCOCC3)c2)nnc1-c1ccncn1 [compound 8] | > 30 | 22.7 | –
33 | 30 | CCOc1ccccc1CNC(=O)c1cccc(NCc2nnc(-c3ccncn3)n2C)c1 [compound 7] | 3.32 | 14.2 | 4.29
